# Experimental data as given in PMC2834277 (Nature structural & molecular biology, 2010).
# Key:
# DmAgo2-MID [1] = target: T1, DmAgo2-MID (Drosophila melanogaster, UniProt Q9VUQ5); test: m7GTP-Sepharose pull-down, competition with free nucleotide; assay type: binding; conditions: 500 uM GTP, PBS, 5 mM MgCl2, 4 C; competitive
# T1 sequence (Q9VUQ5 740-884 limits assumed): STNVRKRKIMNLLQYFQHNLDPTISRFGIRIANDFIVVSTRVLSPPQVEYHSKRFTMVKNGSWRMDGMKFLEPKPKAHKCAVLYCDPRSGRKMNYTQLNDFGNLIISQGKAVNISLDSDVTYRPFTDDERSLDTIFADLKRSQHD
# PurR-C [2] = target: T2, PurR-C (Escherichia coli, UniProt P0ACP7); test: Sepharose resin pull-down, competition with free nucleotide; assay type: binding; conditions: 500 uM nucleotide, PBS, 5 mM MgCl2, 4 C; data not shown
# T2 sequence (P0ACP7 60-341 limits assumed): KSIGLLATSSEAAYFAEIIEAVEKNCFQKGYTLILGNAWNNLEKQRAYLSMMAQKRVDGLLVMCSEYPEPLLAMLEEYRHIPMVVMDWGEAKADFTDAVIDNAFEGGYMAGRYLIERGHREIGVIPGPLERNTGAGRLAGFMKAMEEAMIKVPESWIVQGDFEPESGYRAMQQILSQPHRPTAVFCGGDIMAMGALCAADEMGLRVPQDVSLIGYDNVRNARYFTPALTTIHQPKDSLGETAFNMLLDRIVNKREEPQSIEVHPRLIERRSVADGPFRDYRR
# DmAgo2ΔQ [3] = target: T3, DmAgo2ΔQ (Drosophila melanogaster, UniProt Q9VUQ5); test: resin pull-down, GTP-Sepharose; assay type: binding; conditions: ligand immobilised on Sepharose; competed by miRNA; PBS, MgCl2, 4 C
# T3 sequence (Q9VUQ5 400-1214 limits assumed): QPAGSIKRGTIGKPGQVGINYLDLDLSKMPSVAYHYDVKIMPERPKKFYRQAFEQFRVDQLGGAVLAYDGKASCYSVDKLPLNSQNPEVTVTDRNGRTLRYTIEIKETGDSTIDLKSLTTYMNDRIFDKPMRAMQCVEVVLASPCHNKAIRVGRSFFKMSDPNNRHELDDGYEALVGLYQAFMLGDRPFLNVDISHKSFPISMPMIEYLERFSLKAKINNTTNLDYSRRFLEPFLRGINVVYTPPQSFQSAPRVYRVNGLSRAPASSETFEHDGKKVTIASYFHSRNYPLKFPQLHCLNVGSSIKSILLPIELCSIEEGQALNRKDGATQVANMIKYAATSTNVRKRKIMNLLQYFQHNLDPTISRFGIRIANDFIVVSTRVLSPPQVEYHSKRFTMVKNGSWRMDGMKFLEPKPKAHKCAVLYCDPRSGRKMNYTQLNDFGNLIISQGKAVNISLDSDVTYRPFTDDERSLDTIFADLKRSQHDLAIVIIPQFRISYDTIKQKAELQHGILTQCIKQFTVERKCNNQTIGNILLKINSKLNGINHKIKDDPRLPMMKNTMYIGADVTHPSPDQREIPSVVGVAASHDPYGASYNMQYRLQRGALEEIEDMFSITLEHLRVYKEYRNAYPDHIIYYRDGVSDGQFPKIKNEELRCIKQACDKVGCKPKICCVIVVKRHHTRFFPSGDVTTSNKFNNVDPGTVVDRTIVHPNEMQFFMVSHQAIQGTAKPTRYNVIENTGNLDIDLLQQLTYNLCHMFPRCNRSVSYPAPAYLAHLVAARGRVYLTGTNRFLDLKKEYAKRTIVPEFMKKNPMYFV
# PurR-C [4] = target: T2, PurR-C; test: resin pull-down, m7GTP-Sepharose; assay type: binding; conditions: ligand immobilised on Sepharose; PBS, 5 mM MgCl2, 4 C
# DmAgo1-MID = DmAgo1-MID (Drosophila melanogaster, UniProt A1Z9J5); test: resin pull-down, m7GTP-Sepharose; assay type: binding; conditions: ligand immobilised on Sepharose; PBS, 5 mM MgCl2, 4 C
# Sequence of DmAgo1-MID (A1Z9J5 538-665): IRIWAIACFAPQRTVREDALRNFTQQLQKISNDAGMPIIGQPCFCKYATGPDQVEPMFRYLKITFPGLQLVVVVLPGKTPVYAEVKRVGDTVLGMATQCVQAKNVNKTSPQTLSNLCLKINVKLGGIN
# CeAlg1-MID = CeAlg1-MID (Caenorhabditis elegans, UniProt G5EGR6); test: resin pull-down, m7GTP-Sepharose; assay type: binding; conditions: ligand immobilised on Sepharose; PBS, 5 mM MgCl2, 4 C
# Sequence of CeAlg1-MID (G5EGR6 540-686 limits assumed): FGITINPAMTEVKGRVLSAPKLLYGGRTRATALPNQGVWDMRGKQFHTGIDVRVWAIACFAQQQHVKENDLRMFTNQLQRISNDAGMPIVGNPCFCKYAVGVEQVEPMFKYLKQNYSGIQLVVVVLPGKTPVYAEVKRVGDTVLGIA
# DmAgo2-MID [5] = target: T1, DmAgo2-MID; test: resin pull-down, m7GTP-Sepharose; assay type: binding; conditions: ligand immobilised on Sepharose; PBS, 5 mM MgCl2, 4 C
# DmeIF4E = target: T4, DmeIF4E (Drosophila melanogaster, UniProt P48598); test: resin pull-down, m7GTP-Sepharose; assay type: binding; conditions: ligand immobilised on Sepharose; PBS, 5 mM MgCl2, 4 C
# T4 sequence (P48598 1-259): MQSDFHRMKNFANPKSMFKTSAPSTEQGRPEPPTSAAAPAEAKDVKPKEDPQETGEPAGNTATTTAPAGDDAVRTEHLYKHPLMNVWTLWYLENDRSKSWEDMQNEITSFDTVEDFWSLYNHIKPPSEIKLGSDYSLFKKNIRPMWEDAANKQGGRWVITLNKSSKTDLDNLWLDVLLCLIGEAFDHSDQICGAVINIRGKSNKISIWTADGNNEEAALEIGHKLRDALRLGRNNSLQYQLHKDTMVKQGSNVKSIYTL
# CeRde1 MID domain = target: T5, CeRde1 MID domain (Caenorhabditis elegans, UniProt G5EEH0); test: resin pull-down, m7GTP-Sepharose; assay type: binding; conditions: ligand immobilised on Sepharose; PBS, 5 mM MgCl2, 4 C
# T5 sequence (G5EEH0 470-618 limits assumed): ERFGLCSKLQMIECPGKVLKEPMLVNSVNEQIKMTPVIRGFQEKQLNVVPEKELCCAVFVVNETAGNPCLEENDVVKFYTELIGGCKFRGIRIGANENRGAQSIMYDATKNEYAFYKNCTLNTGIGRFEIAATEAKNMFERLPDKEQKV
# DmAgo2ΔQ [6] = target: T3, DmAgo2ΔQ; test: filter binding, competition with […]-bantam miRNA; conditions: PBS, 5 mM MgCl2, room temperature; 5'-end miRNA site; high concentrations
smiles,measurement,setting,value
Nc1nc2c(ncn2[C@@H]2O[C@H](COP(=O)(O)OP(=O)(O)OP(=O)(O)O)[C@@H](O)[C@H]2O)c(=O)[nH]1 [GTP],"m7GTP-Sepharose pull-down, competition with free nucleotide",DmAgo2-MID [1],DmAgo2-MID binding was also readily competed by GTP
same,"Sepharose resin pull-down, competition with free nucleotide",PurR-C [2],PurR binding to each resin was easily competed by both GTP and m^7GpppG
same,"resin pull-down, GTP-Sepharose",DmAgo2ΔQ [3],"DmAgo2ΔQ binds poorly to m^7GTP, and better to GTP- and GMP-Sepharose"
C[n+]1cn([C@@H]2O[C@H](COP(=O)(O)OP(=O)(O)OP(=O)(O)O)[C@@H](O)[C@H]2O)c2nc(N)[nH]c(=O)c21 [m^7GTP],"resin pull-down, m7GTP-Sepharose",PurR-C [4],"as well as the ligand-binding domain of PurR, were able to bind to both resins"
same,"resin pull-down, m7GTP-Sepharose",DmAgo1-MID,"miRNA-related Argonautes (DmAgo1, CeAlg1) consistently bound more effectively to m^7GTP-Sepharose"
same,"resin pull-down, m7GTP-Sepharose",CeAlg1-MID,"miRNA-related Argonautes (DmAgo1, CeAlg1) consistently bound more effectively to m^7GTP-Sepharose"
same,"resin pull-down, m7GTP-Sepharose",DmAgo2-MID [5],All of the MID domains [...] were able to bind to both resins
same,"resin pull-down, m7GTP-Sepharose",DmeIF4E,the binding of DmeIF4E to m^7GTP-Sepharose was highly efficient
same,"resin pull-down, m7GTP-Sepharose",CeRde1 MID domain,All of the MID domains [...] were able to bind to both resins
Nc1nc2c(ncn2[C@@H]2O[C@H](COP(=O)(O)O)[C@@H](O)[C@H]2O)c(=O)[nH]1 [GMP],"filter binding, competition with 32P-bantam miRNA",DmAgo2ΔQ [6],"allosteric behavior was not observed for DmAgo2ΔQ, though GMP could compete at high concentrations"
C[n+]1cn([C@@H]2O[C@H](COP(=O)(O)OP(=O)(O)OP(=O)(O)OC[C@H]3O[C@@H](n4cnc5c(=O)[nH]c(N)nc54)[C@H](O)[C@@H]3O)[C@@H](O)[C@H]2O)c2nc(N)[nH]c(=O)c21 [m^7GpppG],"Sepharose resin pull-down, competition with free nucleotide",PurR-C [2],PurR binding to each resin was easily competed by both GTP and m^7GpppG
